≈ marks a conversion by molar mass, not a printed value.
How the values were obtained:
[1] = system: Klebsiella pneumoniae; test: Antibacterial activity against Klebsiella pneumoniae by twofold serial dilution method; type: functional
[2] = system: Staphylococcus aureus; test: Antibacterial activity against Staphylococcus aureus by twofold serial dilution method; type: functional
[3] = system: Rhizopus; test: Antifungal activity against Rhizopus sp. by twofold serial dilution method; type: functional
[4] = system: Escherichia coli; test: Antibacterial activity against Escherichia coli by twofold serial dilution method; type: functional
[5] = system: Aspergillus flavus; test: Antifungal activity against Aspergillus flavus by twofold serial dilution method; type: functional
[6] = system: Candida albicans; test: Antifungal activity against Candida albicans by twofold serial dilution method; type: functional
[7] = system: Candida; test: Antifungal activity against Candida 51 by twofold serial dilution method; type: functional
[8] = system: Aspergillus niger; test: Antifungal activity against Aspergillus niger by twofold serial dilution method; type: functional
[9] = system: Pseudomonas aeruginosa; test: Antibacterial activity against Pseudomonas aeruginosa by twofold serial dilution method; type: functional
[10] = system: Salmonella enterica; test: Antibacterial activity against Salmonella typhi by twofold serial dilution method; type: functional, Salmonella enterica subsp. enterica serovar Typhi

Question: Which MIC [1] does the source give for `c1ccc(CON=C2C3C(c4ccccc4)NC(c4ccccc4)C2C(c2ccccc2)NC3c2ccccc2)cc1` (centres undefined) here?
Answer: The MIC was over 200 µg/mL.

Question: What about the MIC [2] of the same compound?
Answer: Its MIC is 200 µg/mL (≈ 364 µM).

Question: And the MIC [3]?
Answer: The MIC was 200 µg/mL (≈ 364 µM).

Question: What about the MIC [4] of the same compound?
Answer: Its MIC is 100 µg/mL (≈ 182 µM).

Question: And the MIC [5]?
Answer: The MIC was 200 µg/mL (≈ 364 µM).

Question: And the MIC [6]?
Answer: The MIC was 100 µg/mL (≈ 182 µM).

Question: What about the MIC [7] of the same compound?
Answer: The MIC was over 200 µg/mL.

Question: And the MIC [8]?
Answer: The MIC was 100 µg/mL (≈ 182 µM).

Question: And the MIC [9]?
Answer: Its MIC is 100 µg/mL (≈ 182 µM).

Question: What does the source list for `Fc1cccc(C2NC(c3cccc(F)c3)C3C(=NOCc4ccccc4)C2C(c2cccc(F)c2)NC3c2cccc(F)c2)c1` (centres undefined)?
Answer: MIC [1]: 50 µg/mL (≈ 80.4 µM); MIC [2]: 12.5 µg/mL (≈ 20.1 µM); MIC [3]: 50 µg/mL (≈ 80.4 µM); MIC [4]: 25 µg/mL (≈ 40.2 µM); MIC [5]: 25 µg/mL (≈ 40.2 µM); MIC [6]: 25 µg/mL (≈ 40.2 µM); MIC [7]: 50 µg/mL (≈ 80.4 µM); MIC [8]: 50 µg/mL (≈ 80.4 µM); MIC [9]: 12.5 µg/mL (≈ 20.1 µM)

Question: Which MIC [1] does the source give for `Fc1ccc(C2NC(c3ccc(F)cc3)C3C(=NOCc4ccccc4)C2C(c2ccc(F)cc2)NC3c2ccc(F)cc2)cc1` (centres undefined) here?
Answer: Its MIC is 25 µg/mL (≈ 40.2 µM).

Question: What about the MIC [2] of the same compound?
Answer: Its MIC is 12.5 µg/mL (≈ 20.1 µM).

Question: And the MIC [3]?
Answer: The MIC was 12.5 µg/mL (≈ 20.1 µM).

Question: What about the MIC [4] of the same compound?
Answer: The MIC was 12.5 µg/mL (≈ 20.1 µM).

Question: What about the MIC [5] of the same compound?
Answer: The MIC was 50 µg/mL (≈ 80.4 µM).

Question: And the MIC [6]?
Answer: Its MIC is 12.5 µg/mL (≈ 20.1 µM).

Question: What about the MIC [7] of the same compound?
Answer: Its MIC is 25 µg/mL (≈ 40.2 µM).

Question: What about the MIC [8] of the same compound?
Answer: Its MIC is 25 µg/mL (≈ 40.2 µM).

Question: What about the MIC [9] of the same compound?
Answer: The MIC was 6.25 µg/mL (≈ 10.1 µM).

Question: Which results are given for `Clc1ccc(C2NC(c3ccc(Cl)cc3)C3C(=NOCc4ccccc4)C2C(c2ccc(Cl)cc2)NC3c2ccc(Cl)cc2)cc1` (centres undefined)?
Answer: MIC [1]: 50 µg/mL (≈ 72.7 µM); MIC [2]: 25 µg/mL (≈ 36.4 µM); MIC [3]: 25 µg/mL (≈ 36.4 µM); MIC [4]: 50 µg/mL (≈ 72.7 µM); MIC [5]: 12.5 µg/mL (≈ 18.2 µM); MIC [6]: 12.5 µg/mL (≈ 18.2 µM); MIC [7]: 50 µg/mL (≈ 72.7 µM); MIC [8]: 25 µg/mL (≈ 36.4 µM); MIC [9]: 6.25 µg/mL (≈ 9.09 µM)

Question: With `Cc1ccc(C2NC(c3ccc(C)cc3)C3C(=NOCc4ccccc4)C2C(c2ccc(C)cc2)NC3c2ccc(C)cc2)cc1` (centres undefined) as the compound, how does the MIC [1] read?
Answer: The MIC was 100 µg/mL (≈ 165 µM).

Question: And the MIC [2]?
Answer: The MIC was 25 µg/mL (≈ 41.3 µM).

Question: What about the MIC [3] of the same compound?
Answer: Its MIC is 50 µg/mL (≈ 82.5 µM).

Question: And the MIC [4]?
Answer: Its MIC is 25 µg/mL (≈ 41.3 µM).

Question: What about the MIC [5] of the same compound?
Answer: The MIC was 25 µg/mL (≈ 41.3 µM).

Question: What about the MIC [6] of the same compound?
Answer: The MIC was 25 µg/mL (≈ 41.3 µM).

Question: And the MIC [7]?
Answer: The MIC was 50 µg/mL (≈ 82.5 µM).

Question: And the MIC [8]?
Answer: The MIC was 50 µg/mL (≈ 82.5 µM).

Question: And the MIC [9]?
Answer: The MIC was 6.25 µg/mL (≈ 10.3 µM).

Question: With `COc1ccc(C2NC(c3ccc(OC)cc3)C3C(=NOCc4ccccc4)C2C(c2ccc(OC)cc2)NC3c2ccc(OC)cc2)cc1` (centres undefined) as the compound, how does the MIC [1] read?
Answer: Its MIC is 100 µg/mL (≈ 149 µM).

Question: And the MIC [2]?
Answer: The MIC was 25 µg/mL (≈ 37.3 µM).

Question: What about the MIC [3] of the same compound?
Answer: The MIC was 50 µg/mL (≈ 74.6 µM).

Question: What about the MIC [4] of the same compound?
Answer: The MIC was 50 µg/mL (≈ 74.6 µM).

Question: And the MIC [5]?
Answer: Its MIC is 50 µg/mL (≈ 74.6 µM).

Question: And the MIC [6]?
Answer: Its MIC is 50 µg/mL (≈ 74.6 µM).

Question: What about the MIC [7] of the same compound?
Answer: Its MIC is 100 µg/mL (≈ 149 µM).

Question: And the MIC [8]?
Answer: The MIC was 25 µg/mL (≈ 37.3 µM).

Question: And the MIC [9]?
Answer: The MIC was 12.5 µg/mL (≈ 18.7 µM).

Question: For `CN1C(c2ccc(F)cc2)C2CCCC(C2=NOCc2ccccc2)C1c1ccc(F)cc1` (centres undefined), which MIC [1] is on record?
Answer: The MIC was 25 µg/mL (≈ 56 µM).

Question: And the MIC [2]?
Answer: The MIC was 50 µg/mL (≈ 112 µM).

Question: And the MIC [3]?
Answer: The MIC was 25 µg/mL (≈ 56 µM).

Question: What about the MIC [4] of the same compound?
Answer: The MIC was 12.5 µg/mL (≈ 28 µM).

Question: What about the MIC [5] of the same compound?
Answer: The MIC was 50 µg/mL (≈ 112 µM).

Question: And the MIC [6]?
Answer: Its MIC is 12.5 µg/mL (≈ 28 µM).

Question: And the MIC [7]?
Answer: Its MIC is 25 µg/mL (≈ 56 µM).

Question: And the MIC [10]?
Answer: The MIC was 25 µg/mL (≈ 56 µM).

Question: What about the MIC [8] of the same compound?
Answer: The MIC was 25 µg/mL (≈ 56 µM).

Question: And the MIC [9]?
Answer: The MIC was 12.5 µg/mL (≈ 28 µM).

Question: With `CN1C(c2ccc(Cl)cc2)C2CCCC(C2=NOCc2ccccc2)C1c1ccc(Cl)cc1` (centres undefined) as the compound, how does the MIC [1] read?
Answer: The MIC was 50 µg/mL (≈ 104 µM).

Question: And the MIC [2]?
Answer: The MIC was 12.5 µg/mL (≈ 26.1 µM).

Question: What about the MIC [3] of the same compound?
Answer: The MIC was 12.5 µg/mL (≈ 26.1 µM).

Question: And the MIC [4]?
Answer: Its MIC is 50 µg/mL (≈ 104 µM).

Question: And the MIC [5]?
Answer: The MIC was 100 µg/mL (≈ 209 µM).

Question: And the MIC [6]?
Answer: Its MIC is 25 µg/mL (≈ 52.1 µM).

Question: What about the MIC [7] of the same compound?
Answer: Its MIC is 12.5 µg/mL (≈ 26.1 µM).

Question: And the MIC [10]?
Answer: Its MIC is 25 µg/mL (≈ 52.1 µM).

Question: What about the MIC [8] of the same compound?
Answer: Its MIC is 12.5 µg/mL (≈ 26.1 µM).

Question: And the MIC [9]?
Answer: The MIC was 12.5 µg/mL (≈ 26.1 µM).

Question: How did the MIC [1] turn out when `COc1ccc(C2C3CCCC(C3=NOCc3ccccc3)C(c3ccc(OC)cc3)N2C)cc1` (centres undefined) was run?
Answer: The MIC was 100 µg/mL (≈ 212 µM).

Question: And the MIC [2]?
Answer: The MIC was 50 µg/mL (≈ 106 µM).

Question: What about the MIC [3] of the same compound?
Answer: The MIC was 50 µg/mL (≈ 106 µM).

Question: What about the MIC [4] of the same compound?
Answer: The MIC was 25 µg/mL (≈ 53.1 µM).

Question: And the MIC [5]?
Answer: Its MIC is 100 µg/mL (≈ 212 µM).

Question: What about the MIC [6] of the same compound?
Answer: The MIC was 25 µg/mL (≈ 53.1 µM).

Question: And the MIC [7]?
Answer: Its MIC is 50 µg/mL (≈ 106 µM).

Question: What about the MIC [10] of the same compound?
Answer: The MIC was 50 µg/mL (≈ 106 µM).

Question: And the MIC [8]?
Answer: Its MIC is 25 µg/mL (≈ 53.1 µM).

Question: What about the MIC [9] of the same compound?
Answer: The MIC was 25 µg/mL (≈ 53.1 µM).

Question: Which results are given for `Cc1ccc(C2C3CCCC(C3=NOCc3ccccc3)C(c3ccc(C)cc3)N2C)cc1` (centres undefined)?
Answer: MIC [1]: 100 µg/mL (≈ 228 µM); MIC [2]: 25 µg/mL (≈ 57 µM); MIC [3]: 50 µg/mL (≈ 114 µM); MIC [4]: 100 µg/mL (≈ 228 µM); MIC [5]: 25 µg/mL (≈ 57 µM); MIC [6]: 50 µg/mL (≈ 114 µM); MIC [7]: 50 µg/mL (≈ 114 µM); MIC [10]: 50 µg/mL (≈ 114 µM); MIC [8]: 100 µg/mL (≈ 228 µM); MIC [9]: 25 µg/mL (≈ 57 µM)

Reference: ChEMBL document CHEMBL1153710, “Synthesis, stereochemistry and antimicrobial studies of novel oxime ethers of aza/diazabicycles” (2009)
